The record followed here is US20250034216A1, “STEREOSELECTIVE COVALENT LIGANDS FOR ONCOGENIC AND IMMUNOLOGICAL PROTEINS” (The Scripps Research Institute, priority 2021, published 2025).

Molecules are shown by their SMILES.

What all share (experiment): IA-DTB cysteine engagement
Holding throughout (format): binding
Holding throughout (conditions): 22Rv1 cells, 20 μM probe, 1 h, relative to DMSO

For one assay, the target named is T1, CPT1A_C96 (Homo sapiens, UniProt P50416).
T1 construct: endogenous in cells; host or cells: 22Rv1
T1 sequence (P50416 1-773): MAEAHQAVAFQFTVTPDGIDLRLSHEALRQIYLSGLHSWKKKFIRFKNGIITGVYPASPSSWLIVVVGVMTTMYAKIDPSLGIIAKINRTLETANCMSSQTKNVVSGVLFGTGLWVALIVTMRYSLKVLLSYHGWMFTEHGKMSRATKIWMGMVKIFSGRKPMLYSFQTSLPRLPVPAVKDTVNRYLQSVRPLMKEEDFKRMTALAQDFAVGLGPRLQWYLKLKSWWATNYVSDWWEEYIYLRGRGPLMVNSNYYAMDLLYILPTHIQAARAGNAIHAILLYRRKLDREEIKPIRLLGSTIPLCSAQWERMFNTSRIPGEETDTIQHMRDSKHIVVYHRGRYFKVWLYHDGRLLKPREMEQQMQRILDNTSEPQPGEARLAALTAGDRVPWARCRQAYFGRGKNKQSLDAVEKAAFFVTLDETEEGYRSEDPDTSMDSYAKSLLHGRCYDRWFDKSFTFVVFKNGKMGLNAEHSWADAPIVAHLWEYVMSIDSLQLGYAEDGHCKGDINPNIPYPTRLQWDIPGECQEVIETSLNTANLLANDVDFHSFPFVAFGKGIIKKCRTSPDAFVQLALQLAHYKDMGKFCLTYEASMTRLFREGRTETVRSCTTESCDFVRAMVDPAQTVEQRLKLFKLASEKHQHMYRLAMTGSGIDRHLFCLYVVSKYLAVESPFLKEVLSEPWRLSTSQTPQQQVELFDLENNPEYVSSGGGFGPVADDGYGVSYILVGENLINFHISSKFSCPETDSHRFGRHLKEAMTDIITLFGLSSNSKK
A digest of the protocol:
(§1)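 Read-out is TMT-based cysteine engagement, expressed as each reporter ion intensity divided by the average of the DMSO channels. Before that, probe-treated cell lysates were capped with IA-DTB, digested, enriched on streptavidin and TMT-tagged. PSMs with DMSO summed intensity <10,000 or DMSO CV >0.5 were excluded.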

In another assay the target is T2, PAFAH2_C72 (Homo sapiens, UniProt Q99487).
T2 construct: endogenous in cells; host or cells: 22Rv1
A digest of the protocol:
as §1

The target of another assay is T3, SLC12A8_C660 (Homo sapiens, UniProt A0AV02).
T3 construct: endogenous in cells; host or cells: 22Rv1
T3 sequence (A0AV02 1-714): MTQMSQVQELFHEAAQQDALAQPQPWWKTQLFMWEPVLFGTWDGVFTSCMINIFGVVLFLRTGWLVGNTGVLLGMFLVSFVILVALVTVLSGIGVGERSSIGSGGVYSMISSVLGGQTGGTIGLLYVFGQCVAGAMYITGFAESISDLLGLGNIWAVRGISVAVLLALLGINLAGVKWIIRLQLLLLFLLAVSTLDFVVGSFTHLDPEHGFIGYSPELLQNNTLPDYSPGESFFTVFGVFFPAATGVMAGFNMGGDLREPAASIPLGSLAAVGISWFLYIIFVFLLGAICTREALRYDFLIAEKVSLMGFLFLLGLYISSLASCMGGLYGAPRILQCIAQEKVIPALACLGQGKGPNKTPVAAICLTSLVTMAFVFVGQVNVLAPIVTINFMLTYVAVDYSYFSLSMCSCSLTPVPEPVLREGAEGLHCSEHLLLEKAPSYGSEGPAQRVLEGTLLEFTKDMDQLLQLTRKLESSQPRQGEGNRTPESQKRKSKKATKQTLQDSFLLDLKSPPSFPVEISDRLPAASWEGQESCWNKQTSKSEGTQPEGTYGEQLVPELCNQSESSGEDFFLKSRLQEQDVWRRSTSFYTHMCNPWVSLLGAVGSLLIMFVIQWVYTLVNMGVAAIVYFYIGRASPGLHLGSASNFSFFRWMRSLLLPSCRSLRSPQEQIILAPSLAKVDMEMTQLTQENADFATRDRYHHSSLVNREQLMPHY
The gist of the method:
as §1

Regarding `C=CC(=O)N1C[C@H](c2ccc(Br)cc2)[C@@H]1C(=O)Nc1cccc2cccnc12` [MY-1B, (2R,3S)-1-acryloyl-3-(4-bromophenyl)-N-(quinolin-8-yl)azetidine-2-carboxamide], on CPT1A_C96, the “% engagement CPT1A_C96” value was determined as 84.75%. For the same molecule, at PAFAH2_C72, the “% engagement PAFAH2_C72” value was 61%. On SLC12A8_C660, the “% engagement SLC12A8_C660” value is reported as 61.5%.

For the molecule `C=CC(=O)N1C[C@H](c2ccc(Br)cc2)[C@H]1C(=O)Nc1cccc2cccnc12` [MY-3B, (2S,3S)-1-acryloyl-3-(4-bromophenyl)-N-(quinolin-8-yl)azetidine-2-carboxamide], the “% engagement CPT1A_C96” value at CPT1A_C96 amounted to 93.5%. Also, at PAFAH2_C72, the “% engagement PAFAH2_C72” value came out at 81%. Also, on SLC12A8_C660, the “% engagement SLC12A8_C660” value was determined as 68.5%.

With `C=CC(=O)N1C[C@H](c2ccc(Br)cc2)[C@H]1C(=O)Nc1cccc2cccnc12` [MY-3A, (2S,3S)-1-acryloyl-3-(4-bromophenyl)-N-(quinolin-8-yl)azetidine-2-carboxamide], on CPT1A_C96, the “% engagement CPT1A_C96” value stood at 89.25%. The “% engagement PAFAH2_C72” value on PAFAH2_C72 was found to be 56.75%. The “% engagement SLC12A8_C660” value at SLC12A8_C660 worked out at 41%.

Turning to `C=CC(=O)N1C[C@@H](c2ccc(Br)cc2)[C@H]1C(=O)Nc1cccc2cccnc12` [MY-1A, (2S,3R)-1-acryloyl-3-(4-bromophenyl)-N-(quinolin-8-yl)azetidine-2-carboxamide], the “% engagement CPT1A_C96” value on CPT1A_C96 was determined as 87%. In addition, at PAFAH2_C72, the “% engagement PAFAH2_C72” value is recorded as 61.75%. Also, at SLC12A8_C660, the “% engagement SLC12A8_C660” value is 77.5%.
